pEC50: −log10 of the molar value. Values after ≈ are worked out from the molar mass of the structure shown. Read-outs that look alike come from different tables or passages of the source. Starred links: 1 amine or outer side, 2 acyl side, 3 side chain; linkers in the order of their positions; H or OH if unused. Positions of bridges follow the written chain, without caps; N, C: chain ends. Residues, ends and D or L forms follow the SMILES beside them. *: point of attachment. C20 diacid = O=C(O)CCCCCCCCCCCCCCCCCCC(=O)*; γGlu = O=C(O)[C@H](CCC(=O)[*:2])N[*:1]
What was measured:
[1] = target: T1, human amylin receptor (amylin 3(a) receptor: human calcitonin receptor + RAMP-3) (Homo sapiens, UniProt O60896+P30988); experiment: Assay (II)a functional CRE-luciferase assay, human amylin receptor; type: cell-based
T1 construct: expressed in transfected cells; host or cells: BHK570
T1 sequence (P30988 25-474): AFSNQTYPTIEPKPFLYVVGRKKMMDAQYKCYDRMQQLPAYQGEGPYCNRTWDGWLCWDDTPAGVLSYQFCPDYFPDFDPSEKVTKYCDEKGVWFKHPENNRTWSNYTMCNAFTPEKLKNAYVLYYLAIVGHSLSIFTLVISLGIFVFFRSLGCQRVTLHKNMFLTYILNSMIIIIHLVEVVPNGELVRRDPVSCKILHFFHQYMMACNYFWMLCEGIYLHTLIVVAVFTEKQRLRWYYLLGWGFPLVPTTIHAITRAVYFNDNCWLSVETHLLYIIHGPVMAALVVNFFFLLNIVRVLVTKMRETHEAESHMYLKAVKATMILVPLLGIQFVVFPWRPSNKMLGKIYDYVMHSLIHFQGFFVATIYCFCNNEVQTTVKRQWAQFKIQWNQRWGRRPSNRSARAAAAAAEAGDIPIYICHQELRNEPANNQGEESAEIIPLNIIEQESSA
T1 sequence (O60896 24-148 partner): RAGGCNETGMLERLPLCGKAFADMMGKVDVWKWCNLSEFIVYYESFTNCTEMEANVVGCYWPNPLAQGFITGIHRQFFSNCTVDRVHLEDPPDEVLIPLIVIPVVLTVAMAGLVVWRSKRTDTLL

[2] = target: T2, human calcitonin receptor (Homo sapiens, UniProt P30988); experiment: Assay (II)a functional CRE-luciferase assay, human calcitonin receptor; type: cell-based; conditions: Table 7; human calcitonin (CTa) receptor
T2 construct: expressed in transfected cells; host or cells: BHK570
T2 sequence (P30988 25-474): T1 sequence (P30988 25-474)

[3] = Assay (III) ThT fibrillation assay for physical stability; type: physicochemical; conditions: ThT fibrillation assay
How it was run: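 Freshly prepared formulations, pH-adjusted, with 1 μM ThT; four or eight replicates incubated at 37 °C under 960 rpm orbital shaking. Fluorescence (ex 444/em 485 nm) read every 20 min; […]. Peptide concentration measured by RP-HPLC before and after the run.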

[4] = Assay (IV) determination of solubility; type: physicochemical
How it was run: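 Solubility was profiled across pH 3.0–8.0 after 18 hours at room temperature: a ~500 nmol/ml aqueous polypeptide solution was diluted 1:1 into 100 mM glycylglycine or bistrispropane buffers. After centrifugation, HPLC gave the dissolved concentration.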

[5] = Table 2, BHK amylin 3(a)-receptor/CRE-luc cells
[6] = bistrispropane buffer, pH 6, pH 6.0, read-out: Solubility pH 6.0
[7] = bistrispropane buffer, pH 6.5, pH 6.5, read-out: Solubility pH 6.5
[8] = bistrispropane buffer, pH 7, pH 7.0, read-out: Solubility pH 7.0
[9] = bistrispropane buffer, pH 7.5, pH 7.5, read-out: Solubility pH 7.5
[10] = bistrispropane buffer, pH 8, pH 8.0, read-out: Solubility pH 8.0
[11] = glycylglycine buffer, pH 3, pH 3.0, read-out: Solubility pH 3.0
[12] = glycylglycine buffer, pH 4, pH 4.0, 18 hours at room temperature, Table 2, read-out: Solubility pH 4.0
[13] = glycylglycine buffer, pH 4, pH 4.0, read-out: Solubility pH 4.0
[14] = glycylglycine buffer, pH 5, pH 5.0, read-out: Solubility pH 5.0
[15] = bistrispropane buffer, pH 7, pH 7.0, 18 hours at room temperature, Table 3, read-out: Solubility pH 7.0

| SMILES | pEC50 [1, 5] | pEC50 [2] | ThT pH 4.0 lag time [3] | ThT pH 4.0 lag time (h) [3] | solubility at 18 h [4, 6] | solubility at 18 h [4, 7] | solubility at 18 h [4, 8] | solubility at 18 h [4, 9] | solubility at 18 h [4, 10] | solubility at 18 h [4, 11] | solubility at 18 h [4, 12] | solubility at 18 h [4, 13] | solubility at 18 h [4, 14] | solubility at 18 h [4, 15] | pEC50 ([1]; Table 6, human amylin receptor) |
| --- | --- | --- | --- | --- | --- | --- | --- | --- | --- | --- | --- | --- | --- | --- | --- |
| CC[C@H](C)[C@H](NC(=O)[C@@H]1CCCN1C(=O)CNC(=O)[C@H](Cc1ccccc1)NC(=O)[C@H](CC(N)=O)NC(=O)[C@H](CC(N)=O)NC(=O)[C@H](CO)NC(=O)[C@H](CO)NC(=O)[C@H](Cc1c[nH]cn1)NC(=O)[C@H](Cc1c[nH]cn1)NC(=O)[C@H](CC(C)C)NC(=O)[C@H](Cc1ccccc1)NC(=O)[C@H](CCC(=O)O)NC(=O)[C@H](C)NC(=O)[C@H](CC(C)C)NC(=O)[C@H](CCCNC(=N)N)NC(=O)[C@H](CCC(N)=O)NC(=O)[C@@H](NC(=O)[C@H](C)NC(=O)[C@@H]1CSSC[C@H](NC(=O)[C@H](CCCNC(=N)N)NC(=O)CNC(=O)CC[C@H](NC(=O)CCCCCCCCCCCCCCCCCCC(=O)O)C(=O)O)C(=O)N[C@@H](CC(N)=O)C(=O)N[C@@H]([C@@H](C)O)C(=O)N[C@@H](C)C(=O)N[C@@H]([C@@H](C)O)C(=O)N1)[C@@H](C)O)C(=O)N[C@@H](CC(C)C)C(=O)N1CCC[C@H]1C(=O)N1CCC[C@H]1C(=O)N[C@H](C(=O)N[C@@H](CC(N)=O)C(=O)N[C@H](C(=O)NCC(=O)N[C@@H](CO)C(=O)N[C@@H](Cc1c[nH]cn1)C(=O)N[C@H](C(=O)N[C@@H](Cc1ccc(O)cc1)C(N)=O)[C@@H](C)O)C(C)C)[C@@H](C)O [Example 100, N-alpha-[(S)-4-Carboxy-4-(19-carboxynonadecanoylamino)butyryl]-Gly-[Arg1,Glu14,His17,His35]-pramlintide] ({C20 diacid-γGlu}-GRCNTATCATQRLAEFLHHSSNNFGPILPPTNVGSHTY-NH2; disulfide 3-8 (inferred)) | 10.17 | 10.05 | 26 h | 26 h | > 200 µM | 28 µM (≈ 128 µg/mL) | 9 µM (≈ 41.1 µg/mL) | 30 µM (≈ 137 µg/mL) | 95 µM (≈ 434 µg/mL) | > 200 µM | > 200 µM | > 200 µM | > 200 µM |  |  |
| CC[C@H](C)[C@H](NC(=O)[C@@H]1CCCN1C(=O)CNC(=O)[C@H](Cc1ccccc1)NC(=O)[C@H](CC(N)=O)NC(=O)[C@H](CC(N)=O)NC(=O)[C@H](CO)NC(=O)[C@H](CO)NC(=O)[C@H](Cc1c[nH]cn1)NC(=O)[C@@H](NC(=O)[C@H](CC(C)C)NC(=O)[C@H](Cc1ccccc1)NC(=O)[C@H](CCC(=O)O)NC(=O)[C@H](C)NC(=O)[C@H](CC(C)C)NC(=O)[C@H](CCCNC(=N)N)NC(=O)[C@H](CCC(N)=O)NC(=O)[C@@H](NC(=O)[C@H](C)NC(=O)[C@@H]1CSSC[C@H](NC(=O)[C@H](CCCNC(=N)N)NC(=O)CNC(=O)CC[C@H](NC(=O)CCCCCCCCCCCCCCCCCCC(=O)O)C(=O)O)C(=O)N[C@@H](CC(N)=O)C(=O)N[C@@H]([C@@H](C)O)C(=O)N[C@@H](C)C(=O)N[C@@H]([C@@H](C)O)C(=O)N1)[C@@H](C)O)C(C)C)C(=O)N[C@@H](CC(C)C)C(=O)N1CCC[C@H]1C(=O)N1CCC[C@H]1C(=O)N[C@H](C(=O)N[C@@H](CC(N)=O)C(=O)N[C@H](C(=O)NCC(=O)N[C@@H](CO)C(=O)N[C@@H](CC(N)=O)C(=O)N[C@H](C(=O)N1CCC[C@H]1C(N)=O)[C@@H](C)O)C(C)C)[C@@H](C)O [Example 102, N-alpha-[(S)-4-Carboxy-4-(19-carboxynonadecanoylamino)butyryl]-Gly-[Arg1,Glu14,Pro37]-pramlintide] ({C20 diacid-γGlu}-GRCNTATCATQRLAEFLVHSSNNFGPILPPTNVGSNTP-NH2; disulfide 3-8 (inferred); C-terminus assumed) | 10.31 | 10.30 |  | 3.1 h | > 200 µM | 198 µM (≈ 879 µg/mL) | > 200 µM | > 200 µM | > 200 µM | > 200 µM | > 200 µM | > 200 µM | > 200 µM | > 200 µM |  |
| CC[C@H](C)[C@H](NC(=O)[C@@H]1CCCN1C(=O)CNC(=O)[C@H](Cc1ccccc1)NC(=O)[C@H](CC(N)=O)NC(=O)[C@H](CC(N)=O)NC(=O)[C@H](CO)NC(=O)[C@H](CO)NC(=O)[C@H](Cc1c[nH]cn1)NC(=O)[C@@H](NC(=O)[C@H](CC(C)C)NC(=O)[C@H](Cc1ccccc1)NC(=O)[C@H](CC(N)=O)NC(=O)[C@H](C)NC(=O)[C@H](CC(C)C)NC(=O)[C@H](CCCNC(=N)N)NC(=O)[C@H](CCC(N)=O)NC(=O)[C@@H](NC(=O)[C@H](C)NC(=O)[C@@H]1CSSC[C@H](NC(=O)[C@H](CCCNC(=N)N)NC(=O)CNC(=O)CC[C@H](NC(=O)CCCCCCCCCCCCCCCCCCC(=O)O)C(=O)O)C(=O)N[C@@H](CC(N)=O)C(=O)N[C@@H]([C@@H](C)O)C(=O)N[C@@H](C)C(=O)N[C@@H]([C@@H](C)O)C(=O)N1)[C@@H](C)O)C(C)C)C(=O)N[C@@H](CC(C)C)C(=O)N1CCC[C@H]1C(=O)N1CCC[C@H]1C(=O)N[C@H](C(=O)N[C@@H](CC(N)=O)C(=O)N[C@H](C(=O)NCC(=O)N[C@@H](CO)C(=O)N[C@@H](CC(N)=O)C(=O)N[C@H](C(=O)N1CCC[C@H]1C(N)=O)[C@@H](C)O)C(C)C)[C@@H](C)O [Example 103, N-alpha-[(S)-4-Carboxy-4-(19-carboxynonadecanoylamino)butyryl]-Gly-[Arg1,Pro37]-pramlintide] ({C20 diacid-γGlu}-GRCNTATCATQRLANFLVHSSNNFGPILPPTNVGSNTP-NH2; disulfide 3-8 (inferred)) |  | 10.12 |  | 1.3 h | > 200 µM | > 200 µM | 199 µM (≈ 880 µg/mL) | > 200 µM | > 200 µM | > 200 µM |  | > 200 µM | > 200 µM |  | 10.28 |
| CC[C@H](C)[C@H](NC(=O)[C@@H]1CCCN1C(=O)CNC(=O)[C@H](Cc1ccccc1)NC(=O)[C@H](CC(N)=O)NC(=O)[C@H](CC(N)=O)NC(=O)[C@H](CO)NC(=O)[C@H](CO)NC(=O)[C@H](Cc1c[nH]cn1)NC(=O)[C@H](Cc1c[nH]cn1)NC(=O)[C@H](CC(C)C)NC(=O)[C@H](Cc1ccccc1)NC(=O)[C@H](CCC(=O)O)NC(=O)[C@H](C)NC(=O)[C@H](CC(C)C)NC(=O)[C@H](CCCNC(=N)N)NC(=O)[C@H](CCC(N)=O)NC(=O)[C@@H](NC(=O)[C@H](C)NC(=O)[C@@H]1CSSC[C@H](NC(=O)CC[C@H](NC(=O)CCCCCCCCCCCCCCCCCCC(=O)O)C(=O)O)C(=O)N[C@@H](CC(N)=O)C(=O)N[C@@H]([C@@H](C)O)C(=O)N[C@@H](C)C(=O)N[C@@H]([C@@H](C)O)C(=O)N1)[C@@H](C)O)C(=O)N[C@@H](CC(C)C)C(=O)N1CCC[C@H]1C(=O)N1CCC[C@H]1C(=O)N[C@H](C(=O)N[C@@H](CC(N)=O)C(=O)N[C@H](C(=O)NCC(=O)N[C@@H](CO)C(=O)N[C@@H](CC(N)=O)C(=O)N[C@H](C(=O)N1CCC[C@H]1C(N)=O)[C@@H](C)O)C(C)C)[C@@H](C)O [Example 104, N-alpha-[(S)-4-Carboxy-4-(19-carboxynonadecanoylamino)butyryl]-[des1,Glu14,His17,Pro37]-pramlintide] ({C20 diacid-γGlu}-CNTATCATQRLAEFLHHSSNNFGPILPPTNVGSNTP-NH2; disulfide 1-6 (inferred)) | 10.10 | 9.97 |  | 23 h | > 200 µM | > 200 µM | > 200 µM | > 200 µM | > 200 µM | > 200 µM | > 200 µM | > 200 µM | > 200 µM | > 200 µM |  |
